pEC50: −log10 of the molar value.
Target: T1, human mAChR M1 (Homo sapiens, UniProt P11229)
T1 construct: host or cells: CHO-K1 (ATCC), stably transfected using Lipofectamine 2000
T1 sequence (P11229 1-460): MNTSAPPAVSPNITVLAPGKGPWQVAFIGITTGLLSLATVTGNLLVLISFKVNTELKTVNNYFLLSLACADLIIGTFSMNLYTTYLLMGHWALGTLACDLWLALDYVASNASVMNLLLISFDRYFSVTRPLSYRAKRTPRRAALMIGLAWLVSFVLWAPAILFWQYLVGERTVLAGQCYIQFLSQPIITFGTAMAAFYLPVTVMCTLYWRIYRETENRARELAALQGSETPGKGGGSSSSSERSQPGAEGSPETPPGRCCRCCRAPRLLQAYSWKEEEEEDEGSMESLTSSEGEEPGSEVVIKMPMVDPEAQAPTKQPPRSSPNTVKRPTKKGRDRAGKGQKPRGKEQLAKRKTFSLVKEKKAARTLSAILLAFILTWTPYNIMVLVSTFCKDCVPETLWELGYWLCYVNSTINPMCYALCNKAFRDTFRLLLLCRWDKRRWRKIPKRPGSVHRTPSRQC
Experiment: mAChR M1 cell-based functional assay (calcium mobilization, Fluo-4, FDSS)
Settings: CHO-K1 cells stably expressing hM1, calcium flux; for Emax: PAM mode with EC20 acetylcholine; for pEC50: concentration-dependent increase in the EC20 acetylcholine response
From the text: Chinese hamster ovary (CHO-K1) cells stably expressing rat (r)M1 were purchased from the American Type Culture Collection and cultured according to their indicated protocol. CHO cells stably expressing human (h)M2, hM3, and hM5 were described previously (Levey, et al., 1991); hM1 and hM4 cDNAs were purchased from Missouri S&T cDNA Resource; rM4 cDNA was provided by T. I. Bonner (National Institutes of Health, Bethesda, Md.). rM2 and rM3 were cloned from a rat brain cDNA library and sequence verified. hM1, rM2, rM3, hM4, and rM4 cDNAs were used to stably transfect CHO-K1 cells purchased from the American Type Culture Collection using Lipofectamine 2000. To make stable rM2, hM2, rM3, hM4, and rM4 cell lines for use in calcium mobilization assays, these cells also were stably transfected with a chimeric G-protein (Gqi5) (provided by B. R. Conklin, University of California, San Francisco) using Lipofectamine 2000. rM1, hM1, rM3, hM3, rM5, and hM5 cells were grown in Ham's F-12 medium containing 10% heat-inactivated fetal bovine serum (FBS), 20 mM HEPES, and 50 µg/mL G418 sulfate. rM2-Gqi5, hM2-Gqi5, and hM4-Gqi5 cells were grown in the same medium also containing 500 μg/mL Hygromycin B. Stable rM4-Gqi5 cells were grown in DMEM containing 10% heat-inactivated FBS, 20 mM HEPES, 400 μg/mL G418 sulfate, and 500 μg/mL Hygromycin B.
For high throughput measurement of agonist-evoked increases in intracellular calcium, CHO-K1 cells stably expressing muscarinic receptors were plated in growth medium lacking G418 and hygromycin at 15,000 cells/20 μL/well in Greiner 384-well black-walled, tissue culture (TC)-treated, clear-bottom plates (VWR). Cells were incubated overnight at 37° C. and 5% CO2. The next day, cells were washed using an ELX 405 (BioTek) with four washes ([…]) of assay buffer then aspirated to 20 μL. Next, 20 μL of 16 μM Fluo-4/acetoxymethyl ester (Invitrogen, Carlsbad, Calif.) prepared as a 2.3 mM stock in DMSO and mixed in a 1:1 ratio with 10% (w/v) Pluronic F-127 and diluted in assay buffer was added to the wells and the cell plates were incubated for 50 min at 37° C. and 5% CO2. Dye was removed by washing with the ELX 405 (four 80 μL washes of assay buffer) then aspirated to 20 μL. Compound master plates were formatted in an 11 point CRC format (1:3 dilutions) in 100% DMSO with a starting concentration of 10 mM using the BRAVO liquid handler (Agilent). Test compound CRCs were then transferred to daughter plates (240 nL) using the Echo acoustic plate reformatter (Labcyte, Sunnyvale, Calif.) and then diluted into assay buffer (40 μL) to a 2× stock using a Thermo Fisher Combi (Thermo Fisher Scientific, Waltham, Mass.).
Calcium flux was measured using the Functional Drug Screening System (FDSS) 6000 (Hamamatsu Corporation, Tokyo, Japan) as an increase in the fluorescent static ratio. Compounds were applied to cells (20 μL, 2×) using the automated system of the FDSS 6000 at 4 s into the 300 s protocol and the data were collected at 1 Hz. At 144 s into the 300s protocol, 10 μL of an EC20 concentration of the muscarinic receptor agonist acetylcholine was added (5×), followed by the addition of 12 μL an EC80 concentration of acetylcholine at the 230 s time point (5×). Agonist activity was analyzed as a concentration-dependent increase in calcium mobilization upon compound addition. Positive allosteric modulator activity was analyzed as a concentration-dependent increase in the EC20 acetylcholine response. Antagonist activity was analyzed as a concentration-dependent decrease in the EC80 acetylcholine response. Concentration-response curves were generated using a four-parameter logistical equation in XLfit curve fitting software (IDBS, Bridgewater, N.J.) for Excel (Microsoft, Redmond, Wash.) or Prism (GraphPad Software, Inc., San Diego, Calif.).
Activity (EC50 and Emax) was determined in the mAChR M1 cell-based functional assay as described above and the data are shown in Table 2. […]

| SMILES | Emax | pEC50 |
| --- | --- | --- |
| Cn1cc2c(-c3cc(F)c(CN4Cc5cn(CCN6CCCC6)nc5C4=O)c(F)c3)cccc2n1 [Compound 21, 5-(2,6-difluoro-4-(2-methyl-2H-indazol-4-yl)benzyl)-2-(2-(pyrrolidin-1-yl)ethyl)-4,5-dihydropyrrolo[3,4-c]pyrazol-6(2H)-one] | 57% | 5.29 |
| Cc1ccc(-c2cc(F)c(CN3Cc4ncsc4C3=O)c(F)c2)cn1 [Compound 23, 5-(2,6-difluoro-4-(6-methylpyridin-3-yl)benzyl)-4,5-dihydro-6H-pyrrolo[3,4-d]thiazol-6-one] | 27% | – |
| Cn1cc2c(-c3cc(F)c(CN4Cc5cnn(CCO)c5C4=O)c(F)c3)cccc2n1 [Compound 24, 5-(2,6-difluoro-4-(2-methyl-2H-indazol-4-yl)benzyl)-1-(2-hydroxyethyl)-4,5-dihydropyrrolo[3,4-c]pyrazol-6(1H)-one] | 80% | 6.04 |
| Cn1cc2c(-c3cc(F)c(CN4Cc5cn(CCO)nc5C4=O)c(F)c3)cccc2n1 [Compound 25, 5-(2,6-difluoro-4-(2-methyl-2H-indazol-4-yl)benzyl)-2-(2-hydroxyethyl)-4,5-dihydropyrrolo[3,4-c]pyrazol-6(2H)-one] | 74% | 5.04 |
| O=C1c2ccsc2CN1Cc1c(F)cc(-c2ccc3nccn3c2)cc1F [Compound 30, 5-(2,6-difluoro-4-(imidazo[1,2-a]pyridin-6-yl)benzyl)-5,6-dihydro-4H-thieno[2,3-c]pyrrol-4-one] | 30% | 6.30 |
| Cn1cc(-c2ccc(CN3Cc4ccsc4C3=O)c(F)c2)cn1 [Compound 32, 5-(2-fluoro-4-(1-methyl-1H-pyrazol-4-yl)benzyl)-4,5-dihydro-6H-thieno[2,3-c]pyrrol-6-one] | 67% | 5.31 |
| Cn1cc(-c2cc(F)c(CN3Cc4cn(CC5CCCO5)nc4C3=O)c(F)c2)cn1 (stereo not shown) [Compound 34, 5-(2,6-difluoro-4-(1-methyl-1H-pyrazol-4-yl)benzyl)-2-((tetrahydrofuran-2-yl)methyl)-4,5-dihydropyrrolo[3,4-c]pyrazol-6(2H)-one] | 35% | – |
| Cn1cc(-c2cc(F)c(CN3Cc4cnn(CC5CCCO5)c4C3=O)c(F)c2)cn1 (stereo not shown) [Compound 35, 5-(2,6-difluoro-4-(1-methyl-1H-pyrazol-4-yl)benzyl)-1-((tetrahydrofuran-2-yl)methyl)-4,5-dihydropyrrolo[3,4-c]pyrazol-6(1H)-one] | 73% | – |
| Cc1nn(C)cc1-c1cc(F)c(CN2Cc3cnn(CC4CCCO4)c3C2=O)c(F)c1 (stereo not shown) [Compound 37, 5-(4-(1,3-dimethyl-1H-pyrazol-4-yl)-2,6-difluorobenzyl)-1-((tetrahydrofuran-2-yl)methyl)-4,5-dihydropyrrolo[3,4-c]pyrazol-6(1H)-one] | 77% | 5.49 |
| Cn1cc2cccc(-c3cc(F)c(CN4Cc5cnn(CC6CCCO6)c5C4=O)c(F)c3)c2n1 (stereo not shown) [Compound 38, 5-(2,6-difluoro-4-(2-methyl-2H-indazol-7-yl)benzyl)-1-((tetrahydrofuran-2-yl)methyl)-4,5-dihydropyrrolo[3,4-c]pyrazol-6(1H)-one] | 66% | 5.16 |
| Cc1cc(-c2cc(F)c(CN3Cc4cnn(CC5CCCO5)c4C3=O)c(F)c2)ccn1 (stereo not shown) [Compound 39, 5-(2,6-difluoro-4-(2-methylpyridin-4-yl)benzyl)-1-((tetrahydrofuran-2-yl)methyl)-4,5-dihydropyrrolo[3,4-c]pyrazol-6(1H)-one] | 65% | 5.45 |
| Cn1cc2c(-c3ccc(CN4Cc5sccc5C4=O)c(F)c3)cccc2n1 [Compound 40, 5-(2-fluoro-4-(2-methyl-2H-indazol-4-yl)benzyl)-5,6-dihydro-4H-thieno[2,3-c]pyrrol-4-one] | 67% | 5.40 |
| Cn1cc(-c2ccc(CN3Cc4sccc4C3=O)c(F)c2)cn1 [Compound 41, 5-(2-fluoro-4-(1-methyl-1H-pyrazol-4-yl)benzyl)-5,6-dihydro-4H-thieno[2,3-c]pyrrol-4-one] | 69% | – |
| Cn1ccc(-c2ccc(CN3Cc4sccc4C3=O)c(F)c2)n1 [Compound 42, 5-(2-fluoro-4-(1-methyl-1H-pyrazol-3-yl)benzyl)-5,6-dihydro-4H-thieno[2,3-c]pyrrol-4-one] | 46% | – |

Results, then the compound that gave them:

| Emax | pEC50 | SMILES |
| --- | --- | --- |
| 28% | 6.43 | Cn1cc2cc(-c3cc(F)c(CN4Cc5ncsc5C4=O)c(F)c3)ccc2n1 [Compound 22, 5-(2,6-difluoro-4-(2-methyl-2H-indazol-5-yl)benzyl)-4,5-dihydro-6H-pyrrolo[3,4-d]thiazol-6-one] |
| 59% | 5.99 | Cn1cc2cc(-c3cc(F)c(CN4Cc5sccc5C4=O)c(F)c3)ccc2n1 [Compound 26, 5-(2,6-difluoro-4-(2-methyl-2H-indazol-5-yl)benzyl)-5,6-dihydro-4H-thieno[2,3-c]pyrrol-4-one] |
| 60% | 5.54 | Cn1cnc2ccc(-c3cc(F)c(CN4Cc5sccc5C4=O)c(F)c3)cc21 [Compound 27, 5-(2,6-difluoro-4-(1-methyl-1H-benzo[d]imidazol-6-yl)benzyl)-5,6-dihydro-4H-thieno[2,3-c]pyrrol-4-one] |
| 57% | – | Cc1n[nH]c2ccc(-c3cc(F)c(CN4Cc5sccc5C4=O)c(F)c3)cc12 [Compound 28, 5-(2,6-difluoro-4-(3-methyl-1H-indazol-5-yl)benzyl)-5,6-dihydro-4H-thieno[2,3-c]pyrrol-4-one] |
| 45% | – | Cc1cc(-c2cc(F)c(CN3Cc4sccc4C3=O)c(F)c2)cc2cn[nH]c12 [Compound 29, 5-(2,6-difluoro-4-(7-methyl-1H-indazol-5-yl)benzyl)-5,6-dihydro-4H-thieno[2,3-c]pyrrol-4-one] |
| 40% | 6.61 | Cn1cc2cc(-c3cc(F)c(CN4Cc5ccsc5C4=O)c(F)c3)ccc2n1 [Compound 31, 5-(2,6-difluoro-4-(2-methyl-2H-indazol-5-yl)benzyl)-4,5-dihydro-6H-thieno[2,3-c]pyrrol-6-one] |
| 56% | 5.65 | Cn1cc2cc(-c3cc(F)c(CN4Cc5scc(Br)c5C4=O)c(F)c3)ccc2n1 [Compound 33, 3-bromo-5-(2,6-difluoro-4-(2-methyl-2H-indazol-5-yl)benzyl)-5,6-dihydro-4H-thieno[2,3-c]pyrrol-4-one] |
| 82% | 5.83 | Cn1cc2cc(-c3cc(F)c(CN4Cc5cnn(CC6CCCO6)c5C4=O)c(F)c3)ccc2n1 (stereo not shown) [Compound 36, 5-(2,6-difluoro-4-(2-methyl-2H-indazol-5-yl)benzyl)-1-((tetrahydrofuran-2-yl)methyl)-4,5-dihydropyrrolo[3,4-c]pyrazol-6(1H)-one] |
